This is an account of results in US20260022096A1, “NOVEL SULFONAMIDES AND THEIR USE AS NEUROPROTECTIVE AND/OR NEURORESTORATIVE AGENTS” (GENECODE, priority 2022, published 2026).

The experiment addresses T1, GFRα1-RET (Homo sapiens, UniProt P56159).
T1 construct: expressed in transfected cells; host or cells: MG87 murine fibroblasts, stably transfected
T1 sequence (P56159 25-429 limits assumed): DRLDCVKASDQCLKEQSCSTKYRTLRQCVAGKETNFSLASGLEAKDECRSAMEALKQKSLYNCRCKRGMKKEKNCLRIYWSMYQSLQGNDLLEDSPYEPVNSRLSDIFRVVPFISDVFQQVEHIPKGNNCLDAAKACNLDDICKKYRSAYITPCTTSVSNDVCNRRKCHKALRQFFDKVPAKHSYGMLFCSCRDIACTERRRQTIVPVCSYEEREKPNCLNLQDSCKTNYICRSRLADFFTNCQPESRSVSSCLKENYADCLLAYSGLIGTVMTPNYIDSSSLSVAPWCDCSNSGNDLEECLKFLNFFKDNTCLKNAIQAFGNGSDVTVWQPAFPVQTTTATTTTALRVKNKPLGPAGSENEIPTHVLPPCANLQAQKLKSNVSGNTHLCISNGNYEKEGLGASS
Put plainly: Elk1 reporter-gene (luciferase) assay in cells expressing GFRα1-RET. It is filed as cell-based. The following applies: MG87 murine fibroblasts stably transfected with PathDetect Elk-1, GFRα1 and RET, 6 concentrations, agonist/activator activity. As for the experimental part: For ECso determination, a dose-response test was performed using 6 concentrations of each tested compound. Dose-response curves were fitted using the sigmoidal dose-response (variable slope) analysis in GraphPad Prism program (Graph Pad Inc) and ECso of agonist/activator activity was calculated. Dose-response experiments were all performed in duplicate, two times independently.
For `CCN(CC)S(=O)(=O)c1cnc(OC)c(N2[C@@H]3CC[C@H]2CN(C(=O)c2ccc(F)cc2Cl)C3)c1` [compound 033, 5-[(1S,5R)-3-(2-chloro-4-fluoro-benzoyl)-3,8-diazabicyclo[3.2.1]octan-8-yl]-N,N-diethyl-6-methoxy-pyridine-3-sulfonamide], the EC50 is 1 to 10 µM.

Compound `CCN(CC)S(=O)(=O)c1cnc(OCc2ccccc2)c(N2[C@@H]3CC[C@H]2CN(C(=O)c2ccc(F)cc2Cl)C3)c1` [compound 034, 6-benzyloxy-5-[(1S,5R)-3-(2-chloro-4-fluoro-benzoyl)-3,8-diazabicyclo[3.2.1]octan-8-yl]-N,N-diethyl-pyridine-3-sulfonamide] gave an EC50 of less than 1 µM.

Consider `CCN(CC)S(=O)(=O)c1cnc(O)c(N2[C@@H]3CC[C@H]2CN(C(=O)c2ccc(F)cc2Cl)C3)c1` [compound 035], for which the EC50 lay within 10 to 50 µM.

The compound `CCCN(C)S(=O)(=O)c1ccc(O)c(N2[C@@H]3CC[C@H]2CN(C(=O)c2ccc(F)cc2Cl)C3)c1` [compound 036, 3-[(1S,5R)-3-(2-chloro-4-fluoro-benzoyl)-3,8-diazabicyclo[3.2.1]octan-8-yl]-4-hydroxy-N-methyl-N-propyl-benzenesulfonamide] returned an EC50 of 1 to 10 µM.

The compound `COc1ccc(S(=O)(=O)N2CCC(c3ccc(F)cc3)CC2)cc1N1[C@@H]2CC[C@H]1CN(C(=O)c1ccc(F)cc1Cl)C2` [compound 039, (2-chloro-4-fluoro-phenyl)-[(1S,5R)-8-[5-[[4-(4-fluorophenyl)-1-piperidyl]sulfonyl]-2-methoxy-phenyl]-3,8-diazabicyclo[3.2.1]octan-3-yl]methanone] gave an EC50 of less than 1 µM.

As for `COc1ccc(S(=O)(=O)N2CCC(c3cccc(C#N)c3)CC2)cc1N1[C@@H]2CC[C@H]1CN(C(=O)c1ccc(F)cc1Cl)C2` [compound 040, 3-[1-[3-[(1S,5R)-3-(2-chloro-4-fluoro-benzoyl)-3,8-diazabicyclo[3.2.1]octan-8-yl]-4-methoxy-phenyl]sulfonyl-4-piperidyl]benzonitrile], the EC50 is less than 1 µM.

`COC(=O)c1cccc(C2CCN(S(=O)(=O)c3ccc(OC)c(N4[C@@H]5CC[C@H]4CN(C(=O)c4ccc(F)cc4Cl)C5)c3)CC2)c1` [compound 041, methyl 3-[1-[3-[(1S,5R)-3-(2-chloro-4-fluoro-benzoyl)-3,8-diazabicyclo[3.2.1]octan-8-yl]-4-methoxy-phenyl]sulfonyl-4-piperidyl]benzoate] returned an EC50 of less than 1 µM.

Take `COC(=O)c1ccc(C2CCN(S(=O)(=O)c3ccc(OC)c(N4[C@@H]5CC[C@H]4CN(C(=O)c4ccc(F)cc4Cl)C5)c3)CC2)cc1` [compound 042, methyl 4-[1-[3-[(1S,5R)-3-(2-chloro-4-fluoro-benzoyl)-3,8-diazabicyclo[3.2.1]octan-8-yl]-4-methoxy-phenyl]sulfonyl-4-piperidyl]benzoate]: the EC50 is less than 1 µM.

On to `COc1ccc(S(=O)(=O)N2CCC(c3cccc(-n4cccn4)c3)CC2)cc1N1[C@@H]2CC[C@H]1CN(C(=O)c1ccc(F)cc1Cl)C2` [compound 043, (2-chloro-4-fluoro-phenyl)-[(1S,5R)-8-[2-methoxy-5-[[4-(3-pyrazol-1-ylphenyl)-1-piperidyl]sulfonyl]phenyl]-3,8-diazabicyclo[3.2.1]octan-3-yl]methanone], for which the EC50 is less than 1 µM.

`COc1ccc(S(=O)(=O)N2CCN(CCc3ccc(F)cc3)CC2)cc1N1[C@@H]2CC[C@H]1CN(C(=O)c1ccc(F)cc1Cl)C2` [compound 046, (2-chloro-4-fluoro-phenyl)-[(1S,5R)-8-[5-[4-[2-(4-fluorophenyl)ethyl]piperazin-1-yl]sulfonyl-2-methoxy-phenyl]-3,8-diazabicyclo[3.2.1]octan-3-yl]methanone] returned an EC50 of less than 1 µM.

`COc1ccc(S(=O)(=O)N2CCN(CCc3ccc(Cl)cc3)CC2)cc1N1[C@@H]2CC[C@H]1CN(C(=O)c1ccc(F)cc1Cl)C2` [compound 048, (2-chloro-4-fluoro-phenyl)-[(1S,5R)-8-[5-[4-[2-(4-chlorophenyl)ethyl]piperazin-1-yl]sulfonyl-2-methoxy-phenyl]-3,8-diazabicyclo[3.2.1]octan-3-yl]methanone] returned an EC50 of less than 1 µM.

For the compound `COc1ccc(S(=O)(=O)N2CCC(c3ccccc3)CC2)cc1N1[C@@H]2CC[C@H]1CN(C(=O)c1cc(F)c(F)cc1Cl)C2` [compound 049, (2-chloro-4,5-difluoro-phenyl)-[(1S,5R)-8-[2-methoxy-5-[(4-phenyl-1-piperidyl)sulfonyl]phenyl]-3,8-diazabicyclo[3.2.1]octan-3-yl]methanone], the EC50 is less than 1 µM.

`COc1ccc(S(=O)(=O)N2CCC(CCc3ccccc3)CC2)cc1N1[C@@H]2CC[C@H]1CN(C(=O)c1cc(F)c(F)cc1Cl)C2` [compound 050, (2-chloro-4,5-difluoro-phenyl)-[(1S,5R)-8-[2-methoxy-5-[[4-(2-phenylethyl)-1-piperidyl]sulfonyl]phenyl]-3,8-diazabicyclo[3.2.1]octan-3-yl]methanone] yielded an EC50 of less than 1 µM.

With `COc1ccc(S(=O)(=O)N2CCN(c3ccccc3)CC2)cc1N1[C@@H]2CC[C@H]1CN(C(=O)c1cc(F)c(F)cc1Cl)C2` [compound 051], the EC50 was less than 1 µM.

Turning to `COc1ccc(S(=O)(=O)N2CCC(=Cc3ccccc3)CC2)cc1N1[C@@H]2CC[C@H]1CN(C(=O)c1cc(F)c(F)cc1Cl)C2` [compound 053, [(1S,5R)-8-[5-[(4-benzylidene-1-piperidyl)sulfonyl]-2-methoxy-phenyl]-3,8-diazabicyclo[3.2.1]octan-3-yl]-(2-chloro-4,5-difluoro-phenyl)methanone], the EC50 is less than 1 µM.

Compound `COc1ccc(S(=O)(=O)N(C)C(C)(C)C)cc1N1[C@@H]2CC[C@H]1CN(C(=O)c1cc(F)c(F)cc1Cl)C2` [compound 054, N-tert-butyl-3-[(1S,5R)-3-(2-chloro-4,5-difluoro-benzoyl)-3,8-diazabicyclo[3.2.1]octan-8-yl]-4-methoxy-N-methyl-benzenesulfonamide] displayed an EC50 of 1 to 10 µM.

Regarding `O=C(c1ccc(F)cc1Cl)N1C[C@H]2CC[C@@H](C1)N2c1cc(S(=O)(=O)N2CCC(c3ccccc3)CC2)cc2c1OCC2` [compound 055, (2-chloro-4-fluoro-phenyl)-[(1S,5R)-8-[5-[(4-phenyl-1-piperidyl)sulfonyl]-2,3-dihydrobenzofuran-7-yl]-3,8-diazabicyclo[3.2.1]octan-3-yl]methanone], the EC50 was less than 1 µM.

`O=C(c1ccc(F)cc1Cl)N1C[C@H]2CC[C@@H](C1)N2c1cc(S(=O)(=O)N2CCC(c3ccc(F)cc3)CC2)cc2c1OCC2` [compound 056, (2-chloro-4-fluoro-phenyl)-[(1S,5R)-8-[5-[[4-(4-fluorophenyl)-1-piperidyl]sulfonyl]-2,3-dihydrobenzofuran-7-yl]-3,8-diazabicyclo[3.2.1]octan-3-yl]methanone] yielded an EC50 of less than 1 µM.

`CC(C)(C)NS(=O)(=O)c1cc2c(c(N3[C@@H]4CC[C@H]3CN(C(=O)c3ccc(F)cc3Cl)C4)c1)OCC2` [compound 057, N-tert-butyl-7-[(1S,5R)-3-(2-chloro-4-fluoro-benzoyl)-3,8-diazabicyclo[3.2.1]octan-8-yl]-2,3-dihydrobenzofuran-5-sulfonamide] showed an EC50 of less than 1 µM.

For `CN(CC1CC1)S(=O)(=O)c1cc2c(c(N3[C@@H]4CC[C@H]3CN(C(=O)c3ccc(F)cc3Cl)C4)c1)OCC2` [compound 058, 7-[(1S,5R)-3-(2-chloro-4-fluoro-benzoyl)-3,8-diazabicyclo[3.2.1]octan-8-yl]-N-(cyclopropylmethyl)-N-methyl-2,3-dihydrobenzofuran-5-sulfonamide], the EC50 was 1 to 10 µM.

The compound `O=C(c1ccc(F)cc1Cl)N1C[C@H]2CC[C@@H](C1)N2c1cc(S(=O)(=O)N2CCN(CCc3ccc(F)cc3)CC2)cc2c1OCC2` [compound 059, (2-chloro-4-fluoro-phenyl)-[(1S,5R)-8-[5-[4-[2-(4-fluorophenyl)ethyl]piperazin-1-yl]sulfonyl-2,3-dihydrobenzofuran-7-yl]-3,8-diazabicyclo[3.2.1]octan-3-yl]methanone] registered an EC50 of less than 1 µM.

`O=C(c1ccc(F)cc1Cl)N1C[C@H]2CC[C@@H](C1)N2c1cc(S(=O)(=O)N2CCN(CCc3ccc(Cl)cc3)CC2)cc2c1OCC2` [compound 060, (2-chloro-4-fluoro-phenyl)-[(1S,5R)-8-[5-[4-[2-(4-chlorophenyl)ethyl]piperazin-1-yl]sulfonyl-2,3-dihydrobenzofuran-7-yl]-3,8-diazabicyclo[3.2.1]octan-3-yl]methanone] gave an EC50 of less than 1 µM.

Turning to `O=C(c1cc(F)c(F)cc1Cl)N1C[C@H]2CC[C@@H](C1)N2c1cc(S(=O)(=O)N2CCC(c3ccccc3)CC2)cc2c1OCC2` [compound 061, (2-chloro-4,5-difluoro-phenyl)-[(1S,5R)-8-[5-[(4-phenyl-1-piperidyl)sulfonyl]-2,3-dihydrobenzofuran-7-yl]-3,8-diazabicyclo[3.2.1]octan-3-yl]methanone], the EC50 was less than 1 µM.

`O=C(c1ccc(F)cc1Cl)N1C[C@H]2CC[C@@H](C1)N2c1cc(S(=O)(=O)N2CCC(CCc3ccccc3)CC2)ccc1O` [compound 062] returned an EC50 of less than 1 µM.

With `O=C(c1ccc(F)cc1Cl)N1C[C@H]2CC[C@@H](C1)N2c1cc(S(=O)(=O)N2CCC(c3ccccc3)CC2)ccc1O` [compound 063, (2-chloro-4-fluoro-phenyl)-[(1S,5R)-8-[2-hydroxy-5-[(4-phenyl-1-piperidyl)sulfonyl]phenyl]-3,8-diazabicyclo[3.2.1]octan-3-yl]methanone], the EC50 was less than 1 µM.
